The source of these data is patent US10315996B2, “ROR gamma (RORγ) modulators” (LEAD PHARMA HOLDING B.V., priority 2015, dated 2019).

In this assay the target is T1, RORγ (Homo sapiens, UniProt P51449).
T1 construct: expressed in transfected cells; host or cells: 293FT cells (Invitrogen), expression vector pFN26A (Promega)
T1 sequence (P51449 269-508 limits assumed): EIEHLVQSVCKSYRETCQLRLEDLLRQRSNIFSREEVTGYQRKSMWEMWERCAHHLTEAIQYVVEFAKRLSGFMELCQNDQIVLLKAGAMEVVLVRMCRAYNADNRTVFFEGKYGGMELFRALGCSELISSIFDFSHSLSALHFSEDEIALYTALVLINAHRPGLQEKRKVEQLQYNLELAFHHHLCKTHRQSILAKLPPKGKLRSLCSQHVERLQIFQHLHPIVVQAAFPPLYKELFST
Nature of the assay: RORγ GAL4 reporter gene assay. It counts as cell-based. Particulars: inhibition of RORγ activity, GAL4-RORγ-LBD luciferase reporter in 293FT cells, overnight incubation; read-out: mean pIC50 (converted). In short, it runs like this: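 293FT cells were transiently co-transfected with GAL4-DBD–RORγ-LBD (or GAL4-VP16 control) and a 9×UAS luc2P reporter, then plated at 60,000 cells/well. Compound was added at final 0.2% DMSO for 16-24 h at 37 °C, and inhibition was measured by firefly luciferase luminescence.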
A general note: A reporter such as luciferase makes a cellular process visible.
As for `CC(C)(C)NC(=O)c1ccc(NC(=O)Cc2ccc(S(=O)(=O)CC3CC3)cc2)cc1` [Example 11, N-tert-butyl-4-[2-(4-cyclopropylmethanesulfonylphenyl)acetamido]benzamide], the IC50 is ≤ 1000 nM.

Regarding `CN(C(=O)c1ccc(NC(=O)Cc2ccc(S(=O)(=O)CC3CC3)cc2)cc1Cl)c1ccccn1` [Example 67, 2-chloro-4-[2-(4-cyclopropylmethanesulfonylphenyl)acetamido]-N-methyl-N-(pyridin-2-yl)benzamide], the IC50 was ≤ 1000 nM. As for `CCN(C(=O)c1ccc(NC(=O)Cc2ccc(S(=O)(=O)CC3CC3)cc2)cc1F)c1ccccc1Cl` [Example 118, N-(2-chlorophenyl)-4-[2-(4-cyclopropylmethanesulfonylphenyl)acetamido]-N-ethyl-2-fluorobenzamide], the IC50 was ≤ 10 nM. The result for `CCN(C(=O)c1ccc(NC(=O)Cc2ccc(S(=O)(=O)NC3CC3)cc2)cc1)c1cc(C)no1` [Example 95, 4-{2-[4-(cyclopropylsulfamoyl)phenyl]acetamido}-N-ethyl-N-(3-methyl-1,2-oxazol-5-yl)benzamide] reads ≤ 100 nM; that for `CCN(C(=O)c1ccc(NC(=O)Cc2ccc(S(=O)(=O)NC3CC3)cc2)cc1)c1nnc(C)s1` [Example 97, 4-{2-[4-(cyclopropylsulfamoyl)phenyl]acetamido}-N-ethyl-N-(5-methyl-1,3,4-thiadiazol-2-yl)benzamide], ≤ 1000 nM; that for `O=C(Cc1ccc(S(=O)(=O)CC2CC2)cc1)Nc1ccc(C(=O)N2CCc3ccccc32)cc1` [Example 41, 2-(4-cyclopropylmethanesulfonylphenyl)-N-[4-(2,3-dihydro-1H-indole-1-carbonyl)phenyl]acetamide], ≤ 1000 nM.

In the case of `CCCN(C(=O)c1ccc(NC(=O)Cc2ccc(S(=O)(=O)NC3CC3)cc2)cc1)c1cc(C)on1` [Example 93, 4-{2-[4-(cyclopropylsulfamoyl)phenyl]acetamido}-N-(5-methyl-1,2-oxazol-3-yl)-N-propylbenzamide], the IC50 was ≤ 10 nM. In the case of `CCN(C(=O)c1ccc(NC(=O)Cc2ccc(S(=O)(=O)NC3CC3)cc2)cc1Cl)c1ccccc1` [Example 112, 2-chloro-4-{2-[4-(cyclopropylsulfamoyl)phenyl]acetamido}-N-ethyl-N-phenylbenzamide], the IC50 was ≤ 1000 nM. As to `CCN(C(=O)c1ccc(NC(=O)Cc2ccc(S(=O)(=O)NC3CC3)cc2)cc1)c1cccc(C)c1` [Example 46, 4-{2-[4-(cyclopropylsulfamoyl)phenyl]acetamido}-N-ethyl-N-(3-methylphenyl) benzamide], the IC50 is ≤ 10 nM. With `CCN(C(=O)c1ccc(NC(=O)Cc2ccc(S(=O)(=O)NC3CC3)cc2)cc1)c1c(C)noc1C` [Example 110, 4-{2-[4-(cyclopropylsulfamoyl)phenyl]acetamido}-N-(dimethyl-1,2-oxazol-4-yl)-N-ethylbenzamide], the IC50 was ≤ 1000 nM. With `CC(C)(C)N(C(=O)c1ccc(NC(=O)Cc2ccc(S(=O)(=O)NC3CC3)cc2)cc1)c1ccccc1` [Example 131, N-tert-butyl-4-{2-[4-(cyclopropylsulfamoyl)phenyl]acetamido}-N-phenylbenzamide], the IC50 was ≤ 10 nM. Turning to `COCCN(C(=O)c1ccc(NC(=O)Cc2ccc(S(=O)(=O)CC3CC3)cc2)cc1)C1CC1` [Example 79, N-cyclopropyl-4-[[2-[4-(cyclopropylmethylsulfonyl)phenyl]acetyl]amino]-N-(2-methoxyethyl)benzamide], the IC50 is ≤ 1000 nM. On to `CCCN(C(=O)c1ccc(NC(=O)Cc2ccc(S(=O)(=O)CC3CC3)cc2)cc1)c1cc(C)on1` [Example 87, 4-[2-(4-cyclopropylmethanesulfonylphenyl)acetamido]-N-(5-methyl-1,2-oxazol-3-yl)-N-propylbenzamide], for which the IC50 is ≤ 10 nM. With `CCN(C(=O)c1ccc(NC(=O)Cc2ccc(S(=O)(=O)CC3CC3)cc2)cc1F)c1ccccc1` [Example 99, 4-[2-(4-cyclopropylmethanesulfonylphenyl)acetamido]-N-ethyl-2-fluoro-N-phenylbenzamide], the IC50 is ≤ 10 nM.

Turning to `CCCN(C(=O)c1ccc(NC(=O)Cc2ccc(S(=O)(=O)NC3CC3)cc2)cc1)c1cccnc1` [Example 65, 4-{2-[4-(cyclopropylsulfamoyl)phenyl]acetamido}-N-propyl-N-(pyridin-3-yl)benzamide], the IC50 is ≤ 1000 nM. As to `CN(C(=O)c1ccc(NC(=O)Cc2ccc(S(=O)(=O)CC3CC3)cc2)cc1)c1nccs1` [Example 85, 4-[2-(4-cyclopropylmethanesulfonylphenyl)acetamido]-N-methyl-N-(1,3-thiazol-2-yl)benzamide], the IC50 is ≤ 1000 nM. For `CCN(C(=O)c1ccc(NC(=O)Cc2ccc(S(=O)(=O)CC3CC3)cc2)cc1)c1c(C)noc1C` [Example 108, 4-[2-(4-cyclopropylmethanesulfonylphenyl)acetamido]-N-(dimethyl-1,2-oxazol-4-yl)-N-ethyl-benzamide], the IC50 was ≤ 100 nM. To `C[C@@H](c1ccccc1)N(C)C(=O)c1ccc(NC(=O)Cc2ccc(S(=O)(=O)CC3CC3)cc2)cc1` [Example 18, 4-[2-(4-cyclopropylmethanesulfonylphenyl)acetamido]-N-methyl-N-[(1S)-1-phenylethyl]benzamide] belongs ≤ 100 nM.

In the case of `CN(C(=O)c1ccc(NC(=O)Cc2ccc(S(=O)(=O)CC3CC3)cc2)cc1F)c1ccccc1F` [Example 126, 4-[2-(4-cyclopropylmethanesulfonylphenyl)acetamido]-2-fluoro-N-(2-fluorophenyl)-N-methylbenzamide], the IC50 is ≤ 10 nM. The result for `O=C(Cc1ccc(S(=O)(=O)NC2CC2)cc1)Nc1ccc(C(=O)N(Cc2ccccc2)Cc2ccccc2)cc1` [Example 24, N,N-dibenzyl-4-{2-[4-(cyclopropylsulfamoyl)phenyl]acetamido}benzamide] reads ≤ 100 nM; that for `O=C(Cc1ccc(S(=O)(=O)CC2CC2)cc1)Nc1ccc(C(=O)N2CCCc3ccccc32)cc1` [Example 40, 2-(4-cyclopropylmethanesulfonylphenyl)-N-[4-(1,2,3,4-tetrahydroquinoline-1-carbonyl)phenyl]acetamide], ≤ 10 nM; that for `CC(NC(=O)c1ccc(NC(=O)Cc2ccc(S(=O)(=O)CC3CC3)cc2)cc1)c1ccccc1` (stereo not drawn) [Example 14, 4-[2-(4-cyclopropylmethanesulfonylphenyl)acetamido]-N-(1-phenylethyl)benzamide], ≤ 100 nM. Take `O=C(Cc1ccc(S(=O)(=O)CC2CC2)cc1)Nc1ccc(C(=O)N2CCCCc3ccccc32)cc1` [Example 63, 2-(4-cyclopropylmethanesulfonylphenyl)-N-[4-(2,3,4,5-tetrahydro-1H-1-benzazepine-1-carbonyl)phenyl]acetamide]: the IC50 is ≤ 10 nM.

Regarding `CCN(C(=O)c1ccc(NC(=O)Cc2ccc(S(=O)(=O)CC3CC3)cc2)cc1Cl)c1ccccc1C` [Example 129, 2-chloro-4-[2-(4-cyclopropylmethanesulfonylphenyl)acetamido]-N-ethyl-N-(2-methylphenyl)benzamide], the IC50 is ≤ 10 nM. Consider `CCN(C(=O)c1ccc(NC(=O)Cc2ccc(S(=O)(=O)CC3CC3)cc2)cc1)c1cc(C)on1` [Example 89, 4-[2-(4-cyclopropylmethanesulfonylphenyl)acetamido]-N-ethyl-N-(5-methyl-1,2-oxazol-3-yl)benzamide], for which the IC50 is ≤ 10 nM. `O=C(Cc1ccc(S(=O)(=O)CC2CC2)cc1)Nc1ccc(C(=O)N(C2CCC2)C2CCC2)cc1` [Example 27, N,N-dicyclobutyl-4-[2-(4-cyclopropylmethanesulfonylphenyl)acetamido]benzamide]: the IC50 was ≤ 100 nM. On to `CC1CCCCN1C(=O)c1ccc(NC(=O)Cc2ccc(S(=O)(=O)CC3CC3)cc2)cc1` (stereo not drawn) [Example 28, 2-(4-cyclopropylmethanesulfonylphenyl)-N-[4-(2-methylpiperidine-1-carbonyl)phenyl]acetamide], for which the IC50 was ≤ 1000 nM. Turning to `CC(C)CN(CC(C)C)C(=O)c1ccc(NC(=O)Cc2ccc(S(=O)(=O)NC3CC3)cc2)cc1` [Example 62, 4-{2-[4-(cyclopropylsulfamoyl)phenyl]acetamido}-N,N-bis(2-methylpropyl)benzamide], the IC50 is ≤ 1000 nM. `CCN(C(=O)c1ccc(NC(=O)Cc2ccc(S(=O)(=O)CC3CC3)cc2)c(F)c1)c1ccccc1` [Example 102, 4-[2-(4-cyclopropylmethanesulfonylphenyl)acetamido]-N-ethyl-3-fluoro-N-phenylbenzamide]: the IC50 was ≤ 10 nM. `O=C(Cc1ccc(S(=O)(=O)CC2CC2)cc1)Nc1ccc(C(=O)N(c2ccccn2)C2CCC2)cc1` [Example 139, N-cyclobutyl-4-[2-(4-cyclopropylmethanesulfonylphenyl)acetamido]-N-(pyridin-2-yl)benzamide]: the IC50 was ≤ 10 nM. `CCN(C(=O)c1ccc(NC(=O)Cc2ccc(S(=O)(=O)CC3CC3)cc2)cc1)c1ccc(C)cc1` [Example 29, 4-[2-(4-cyclopropylmethanesulfonylphenyl)acetamido]-N-ethyl-N-(4-methylphenyl)benzamide]: the IC50 is ≤ 10 nM.

For the molecule `CC(C)CN(C(=O)c1ccc(NC(=O)Cc2ccc(S(=O)(=O)CC3CC3)cc2)cc1)c1ccccc1` [Example 37, 4-[2-(4-cyclopropylmethanesulfonylphenyl)acetamido]-N-(2-methylpropyl)-N-phenylbenzamide], the IC50 was ≤ 10 nM.

Turning to `CCN(C(=O)c1ccc(NC(=O)Cc2ccc(S(=O)(=O)NC3CC3)cc2)cc1)c1nc(C)c(C)s1` [Example 107, 4-{2-[4-(cyclopropylsulfamoyl)phenyl]acetamido}-N-(4-methyl-5-methyl-1,3-thiazol-2-yl)-N-ethyl-benzamide], the IC50 was ≤ 100 nM.
